Source: PMC5081312, “Antifouling phenyl ethers and other compounds from the invertebrates and their symbiotic fungi collected from the South China Sea” (AMB Express, 2016)
Converted amounts (≈) assume the structure as drawn. Like-named read-outs stand apart in the source and are kept apart here.

Experiments:
[1] = in vivo; conditions: Artemia salina (brine shrimp), in vivo
Procedure: (§1) The brine shrimp lethality bioassay on Artemia salina was performed to predict the toxicity of the compounds. The test was conducted using 24-well plate as described previously according to standard protocols (Solis et al. [1993]; Meyer et al. [1982]). The wells containing FSW-DMSO (v/v 1:1000) served as the negative controls. Adriamycin was used as a positive control. There were three replicate wells per concentration, and each bioassay experiment had three replicates using three different batches of brine shrimp.

[2] = tested on: cyprids of barnacle B. amphitrite; design: method as in Jacobson and Willingham [2000]; conditions: concentration used for positive control; ref Jacobson and Willingham [2000]; cited from earlier work
[3] = tested on: cyprids of barnacle B. amphitrite; assay: Anti-larval settlement bioassay (antifouling activity and larval toxicity); assay type: in vivo; conditions: for LC50/EC50 ratio (therapeutic ratio): B. amphitrite cyprids, ratio >15 considered non-toxic; for EC50: read-out: EC50 (larval settlement inhibition)
Procedure: (§2) The newly released nauplii were screened with the aperture of 90 μm. The newly released nauplii were raised in filtered seawater (FSW) at 28 °C with mild aeration and fed with Chaetoceros gracilis Schutt at 1 × 10^6 cells ml^−1. The nauplius larvae transformed into cyprids (ready to attach and metamorphose) after 3.5 days. Newly transformed cyprids were kept in filtered seawater at 4 °C overnight before being used in the anti-larval settlement bioassay.
(§3) The antifouling activity was evaluated as larval settlement inhibition against the cyprids of barnacle B. amphitrite using 24-well polystyrene plates (Nunc, Naperville, CA, USA). Each compound was dissolved in a stock solution of DMSO with the concentration of 50 mg ml^−1, and then diluted 1000 times with FSW to 50 μg ml^−1. The compound was further transferred into FSW to make up the following test solution with the concentrations ranging from 25 to 0.50 μg ml^−1. One millilitre of the test solution and 16–20 larvae were allocated to each well of the 24-well plate. Each concentration had three replicate wells. The plates were cultivated in darkness for 48 h at 28 °C. The effects of the test compounds against the larvae settlement were determined by examining the plates under a dissecting microscope to check for (1) settled larvae (attached and metamorphosed), (2) swimming larvae, as well as (3) any possible toxic effects of the treatments (dead and paralyzed). The number of the settled larvae was expressed as a percentage of the total number of larvae per well. Each compound was tested by triplicate experiments using three different batches of larvae.
(§4) The EC50 and LC50 values of each compound were calculated according to the records of anti-larval settlement experiments. […] Then a concentration–response curve was plotted and a tread line was set up.

[4] = as above; assay type: in vivo; conditions: Balanus (Amphibalanus) amphitrite (barnacle cyprid larvae), in vivo, cyprids of B. amphitrite, 48 h at 28 °C, concentration where 50% of larvae were dead; for LC50 at 48 h: other: larvae immersed in test solution
Procedure: as §2, §3, §4

[5] = tested on: brine shrimps Artemia salina; assay: in vivo; conditions: read-out: LC50 (brine shrimp lethality); Artemia salina
Procedure: as §1

[6] = cyprids of B. amphitrite, 48 h at 28 °C, concentration where 50% of larvae were inhibited to settle vs negative control
[7] = LC50 (brine shrimp lethality), Artemia salina
[8] = Amphibalanus amphitrite, 48 h, cyprids of B. amphitrite, 48 h at 28 °C, concentration where 50% of larvae were inhibited to settle vs negative control
[9] = Amphibalanus amphitrite, cyprids of B. amphitrite, 48 h at 28 °C, concentration where 50% of larvae were inhibited to settle vs negative control

| Compound | LC50/EC50 ratio (therapeutic ratio) [3] | LC50 [1, 7] [µM] | LC50 at 48 h [4] [µM] | EC50 [3, 8] [µM] | LC50 [4] [µM] | other results |
| --- | --- | --- | --- | --- | --- | --- |
| COc1cccc2c1C(=O)c1c(O)c3c(c(O)c1C2=O)C[C@@](O)(C(=O)CO)C[C@@H]3O[C@H]1C[C@H](N)[C@H](O)[C@H](C)O1 [Adriamycin, reference compound] | – | – | – | – | – | LC50 [1]: 12 µM |
| CCCCCCCCn1sc(Cl)c(Cl)c1=O [Sea-Nine 211™, reference compound] | 20.3 | – | – | – | – | EC50 value against B. amphitrite [2]: 1.23 µg/mL (≈ 4.36 µM); LC50 ([3]; cyprids of B. amphitrite, 48 h at 28 °C, concentration where 50% of larvae were dead): 88.7 µM; EC50 [3, 6]: 4.36 µM |
| Cc1cc(O)cc(Oc2cc(C)cc(O)c2)c1 [compound 1, Diorcinol] | >6.67 | 126 | > 217 | 32.6 | – | – |
| Cc1cc(O)cc(Oc2cc(C)cc(O)c2O)c1 [compound 2, Cordyol C] | >3.54 | 126 | > 203 | 57.3 | – | – |
| COC(=O)c1c(C)cc(Oc2cc(C)cc(O)c2)cc1O [compound 3, 4-Methoxyacyl-diorcinol] | – | ≥ 34.7 | > 174 | < 10 | – | LC50 [5]: 34.7 µM; EC50 [3, 6]: 7.43 µM |
| COc1cc(C)cc(Oc2cc(C)cc(O)c2)c1 [compound 4, Cordyol E] | >6.61 | 41 | > 205 | 31 | – | – |
| COc1cc(C)cc(Oc2cc(C)cc(OC)c2O)c1O [compound 5, 3,3′-O-dimethylviolaceol-I] | >9.35 | 172 | > 172 | 18.4 | – | – |
| COc1cc(C)cc(Oc2cc(C)cc(OC)c2OC)c1O [compound 6, Cordyol D] | >9.01 | 164 | > 164 | 18.2 | – | – |
| Cc1cc(O)cc(Oc2cc(C)cc(OC(=O)c3ccccc3)c2)c1 [compound 10, 3-O-benzoyl-diorcinol] | >11.9 | > 150 | > 150 | 12.6 | – | – |
| Cc1c(Br)c(O)c(Br)c(Oc2c(Br)c(C)c(Br)c(O)c2Br)c1Br [compound 13, 2,4,6,2′,4′,6′-Hexabromo-diorcinol] | – | – | – | – | 22 | LC50 [1]: 35.6 µM; EC50 [3, 9]: 0.71 µM |
| COC(=O)c1c(C)c(Br)c(Oc2c(Br)c(C)c(Br)c(O)c2Br)c(Br)c1O [compound 14, 2,6,2′,4′,6′-Pentabromo-4-methoxycarbonyl-diorcinol] | – | – | – | – | 29.3 | LC50 [1]: > 73.3 µM; EC50 [3, 9]: 1.17 µM |
| Cc1cc(O)cc(Oc2cc(C)cc(OC(=O)c3ccc(Br)cc3)c2)c1 [compound 15, 3-O-p-Bromobenzoyl-diorcinol] | – | > 121 | 60.5 | 2.42 | – | – |
| C/C(=C\[C@H](O)C[C@@H](C)CCCc1ccoc1)CCCc1ccoc1 [compound 22, Furospongin-1] | 25.2 | – | 153 | 6.05 | – | inhibition of larval settlement in preliminary screening ([3]; B. amphitrite, at 25.0 μg ml^−1): completely inhibited; EC50 [3, 6]: 6.06 µM |
| C=CC(C)(C)c1[nH]c2c(CC=C(C)C)cc(CC=C(C)C)cc2c1C[C@@H]1NC(=O)[C@H](C)NC1=O [compound 44, Echinulin] | – | – | – | – | > 108 | EC50 ([3]; Amphibalanus amphitrite, 48 h): > 54.2 µM |
| CO[C@H]1[C@@H](O)CC/C(C)=C/[C@H]2C=C(C)[C@@H](C)[C@H]3[C@H](CC(C)C)NC(=O)[C@]32C(=O)C[C@@H]1O [compound 46, Aspochalasin K] | >6.65 | – | – | – | > 115 | EC50 [3, 9]: 17.3 µM |
| CC1=C[C@@H]2/C=C(\C)CC[C@H](O)[C@H](O)[C@@H](O)CC(=O)[C@]23C(=O)N[C@@H](CC(C)C)[C@@H]3[C@@H]1C [compound 47, Aspochalasin E] | >3.70 | – | – | – | > 119 | EC50 [3, 9]: 32.2 µM |
